Experimental data as given in patent US20200055839A1 (priority 2017, published 2020).

tested on: NL-RLuc virus; assay: Inhibition of HIV replication (NL-RLuc virus, luciferase readout in MT-2 cells); type: cell-based; conditions: Human immunodeficiency virus 1, MT2, 120 h, MT-2 cells infected with NL-RLuc virus, 5 days of incubation, 10% FBS, at least 2 experiments
Description: Inhibition of HIV Replication:
A recombinant NL-RLuc proviral clone was constructed in which a section of the nef gene form NL4-3 was replaced with the Renilla Luciferase gene. This virus is fully infectious and can undergo multiple cycles of replication in cell culture. In addition, the luciferous reporter provides a simple and easy method for quantitating the extent of virus growth and consequently, the antiviral activity of test compounds. The plasmid pNLRLuc contains the proviral NL-Rluc DNA cloned into pUC18 at the PvuII site. The NL-RLuc virus was prepared by transfection of 293T cells with the plasmid pNLRLuc. Transfections were performed using the LipofectAMINE PLUS kit form Invitrogen (Carlsbad, Calif.) according to the manufacturer and the virus generated was titered in MT-2 cells. For susceptibility analyses, the titrated virus was used to infect MT-2 cells in the presence of compound, and after 5 days of incubation, cells were processed and quantitated for virus growth by the amount of expressed luciferase. Assay media was RPMI 1640 supplemented with 10% heat inactivated fetal bovine serum (FBS), 100 units/ml penicillin G/100 units/ml streptomycin, 10 mM HEPES buffer pH 7.55 and 2 mM L-glutamine. The results form at least 2 experiments were used to calculate the EC50 values. Luciferase was quantitated using the Dual Luciferase kit form Promega (Madison, Wis.). Susceptibility of viruses to compounds was determined by incubation in the presence of serial dilutions of the compound. The 50% effective concentration (EC50) was calculated by using the exponential form of the median effect equation where (Fa)=1/[1+(ED50/drug conc.)^m](Johnson V A, Byington R T. Infectivity Assay. In Techniques in HIV Research. ed. Aldovini A, Walker B D. 71-76. New York: Stockton Press. 1990).

| SMILES | EC50 |
| --- | --- |
| CC(C)COc1ccc(-c2cnc(CF)c([C@H](OC(C)(C)C)C(=O)O)c2N2CCC(C)(C)CC2)nc1 [Example 278, (S)-2-(tert-Butoxy)-2-(4′-(4,4-dimethylpiperidin-1-yl)-6′-(fluoromethyl)-5-isobutoxy-[2, 3′-bipyridin]-5′-yl)acetic acid] | 4 nM |
| Cc1ncc(-c2ccc(OCCc3ccccc3F)cn2)c(N2CCC(C)(C)CC2)c1[C@H](OC(C)(C)C)C(=O)O [Example 303, (2S)-2-(tert-butoxy)-2-[4′-(4,4-dimethylpiperidin-1-yl)-5-[2-(2-fluorophenyl)ethoxy]-6′-methyl-[2,3′-bipyridine]-5′-yl]acetic acid] | 0.6 nM |
| COc1ccc(F)c(-c2cnc(C)c([C@H](OC(C)(C)C)C(=O)O)c2N2CCC(C)(C)CC2)c1 [Example 150, (2S)-2-(tert-Butoxy)-2-[4-(4,4-dimethylpiperidin-1-yl)-5-(2-fluoro-5-methoxyphenyl)-2-methylpyridin-3-yl]acetic acid] | 12 nM |
| CC1(C)CCN(c2c(-c3ccc(OCCc4ccc(F)cc4)c(F)c3)c(N)nc(Cl)c2[C@H](OC(C)(C)C)C(=O)O)CC1 [Example 209, (S)-2-(6-Amino-2-chloro-4-(4,4-dimethylpiperidin-1-yl)-5-(3-fluoro-4-(4-fluorophenethoxy)phenyl)pyridin-3-yl)-2-(tert-butoxy)acetic acid] | 4 nM |
| CNc1nc(C)c([C@H](OC(C)(C)C)C(=O)O)c(N2CCC(C)(C)CC2)c1-c1ccc(OCCc2ccc(F)cc2)c(F)c1 [Example 108, (S)-2-(tert-Butoxy)-2-(4-(4,4-dimethylpiperidin-1-yl)-5-(3-fluoro-4-(4-fluorophenethoxy)phenyl)-2-methyl-6-(methylamino)pyridin-3-yl)acetic acid] | 3 nM |
| CC1(C)CCN(c2c(-c3ccc(OCCc4ccc(F)cc4)c(F)c3)cnc(C#N)c2[C@H](OC(C)(C)C)C(=O)O)CC1 [Example 217, (S)-2-(tert-Butoxy)-2-(2-cyano-4-(4,4-dimethylpiperidin-1-yl)-5-(3-fluoro-4-(4-fluorophenethoxy)phenyl)pyridin-3-yl)acetic acid] | 10 nM |
| Cc1nc(NCCCC2CCCCC2)c(-c2ccc(OCCc3ccc(F)cc3)cc2)c(N2CCC(C)(C)CC2)c1[C@H](OC(C)(C)C)C(=O)O [Example 91, (S)-2-(tert-Butoxy)-2-(6-((3-cyclohexylpropyl)amino)-4-(4,4-dimethylpiperidin-1-yl)-5-(4-(4-fluorophenethoxy)phenyl)-2-methylpyridin-3-yl)acetic acid] | 72 nM |
| Cc1cn(-c2nc(C)c([C@H](OC(C)(C)C)C(=O)O)c(N3CCC(C)(C)CC3)c2-c2ccc(OCCc3ccc(F)cc3)cc2)cn1 (single isomer, unassigned) [Example 56] | 2 nM |
| Cc1ncc(-c2ccc(N(C)C)nc2)c(N2CCC(C)(C)CC2)c1[C@H](OC(C)(C)C)C(=O)O [Example 111, (S)-2-(tert-Butoxy)-2-(6′-(dimethylamino)-4-(4,4-dimethylpiperidin-1-yl)-6-methyl-[3, 3′-bipyridin]-5-yl)acetic acid] | 2 nM |
| Cc1nc(C#N)c([C@H](OC(C)(C)C)C(=O)O)c(N2CCC(C)(C)CC2)c1-c1ccc(OCCc2ccc(F)cc2)cc1 [Example 5, (S)-2-(tert-Butoxy)-2-(2-cyano-4-(4,4-dimethylpiperidin-1-yl)-5-(4-(4-fluorophenethoxy)phenyl)-6-methylpyridin-3-yl)acetic acid] | 7 nM |
| Cc1ncc(-c2cnc(O[C@H](C)Cc3ccccc3)c(F)c2)c(N2CCC(C)(C)CC2)c1[C@H](OC(C)(C)C)C(=O)O [Example 380, (2S)-2-(tert-butoxy)-2-[4-(4,4-dimethylpiperidin-1-yl)-5′-fluoro-6-methyl-6′-{[(2R)-1-phenylpropan-2-yl]oxy}-[3,3′-bipyridine]-5-yl]acetic acid] | 2 nM |
| Cc1ccc(-c2cnc(C)c([C@H](OC(C)(C)C)C(=O)O)c2N2CCC(C)(C)CC2)c(F)c1F [Example 159, (2S)-2-(tert-Butoxy)-2-[5-(2,3-difluoro-4-methylphenyl)-4-(4,4-dimethylpiperidin-1-yl)-2-methylpyridin-3-yl]acetic acid] | 2 nM |
| Cc1ncc(-c2ccc(OCCc3ccc(F)c(F)c3)cn2)c(N2CCC(C)(C)CC2)c1[C@H](OC(C)(C)C)C(=O)O [Example 299, (2S)-2-(tert-butoxy)-2-{5-[2-(3,4-difluorophenyl)ethoxy]-4′-(4,4-dimethylpiperidin-1-yl)-6′-methyl-[2,3′-bipyridine]-5′-yl}acetic acid] | 1 nM |
| Cc1ncc(-c2cnc(OCCc3ccc(Cl)cc3Cl)c(F)c2)c(N2CCC(C)(C)CC2)c1[C@H](OC(C)(C)C)C(=O)O [Example 234, (S)-2-(tert-Butoxy)-2-(6′-(2,4-dichlorophenethoxy)-4-(4,4-dimethylpiperidin-1-yl)-5′-fluoro-6-methyl-[3, 3′-bipyridin]-5-yl)acetic acid] | 4 nM |
| Cc1ncc(-c2ccc(OCc3cccc(F)c3)cn2)c(N2CCC(C)(C)CC2)c1[C@H](OC(C)(C)C)C(=O)O [Example 343, (2S)-2-(tert-butoxy)-2-[4′-(4,4-dimethylpiperidin-1-yl)-5-[(3-fluorophenyl)methoxy]-6′-methyl-[2,3′-bipyridine]-5′-yl]acetic acid] | 2 nM |
| Cc1nc(NCCN2CCOCC2)c(-c2ccc(OCCc3ccc(F)cc3)cc2)c(N2CCC(C)(C)CC2)c1[C@H](OC(C)(C)C)C(=O)O [Example 26, (S)-2-(tert-Butoxy)-2-(4-(4,4-dimethylpiperidin-1-yl)-5-(4-(4-fluorophenethoxy)phenyl)-2-methyl-6-((2-morpholinoethyl)amino)pyridin-3-yl)acetic acid] | 0.5 nM |
| Cc1cc(-c2cnc(C)c([C@H](OC(C)(C)C)C(=O)O)c2N2CCC(C)(C)CC2)ccn1 [Example 142, (2S)-2-(tert-Butoxy)-2-[4-(4,4-dimethylpiperidin-1-yl)-2′,6-dimethyl-[3, 4′-bipyridine]-5-yl]acetic acid] | 6 nM |
| Cc1ncc(-c2ccc(OCCc3ccc(F)cc3)cn2)c(N2CCC(C)(C)CC2)c1[C@H](OC(C)C)C(=O)O [Example 271, (S)-2-(4′-(4,4-Dimethylpiperidin-1-yl)-5-(4-fluorophenethoxy)-6′-methyl-[2, 3′-bipyridin]-5′-yl)-2-isopropoxyacetic acid] | 3 nM |
| Cc1ncc(-c2ccc(OCCC(C)C)nc2)c(N2CCC(C)(C)CC2)c1[C@H](OC(C)(C)C)C(=O)O [Example 427, (S)-2-tert-Butoxy-2-(4-(4,4-dimethylpiperidin-1-yl)-6′-(isopentyloxy)-6-methyl-3, 3′-bipyridin-5-yl)acetic acid] | 2 nM |
| COc1nc(-c2cnc(C)c([C@H](OC(C)(C)C)C(=O)O)c2N2CCC(C)(C)CC2)ccc1OCCc1ccc(F)cc1 [Example 249, (S)-2-(tert-Butoxy)-2-(4′-(4,4-dimethylpiperidin-1-yl)-5-(4-fluorophenethoxy)-6-methoxy-6′-methyl-[2, 3′-bipyridin]-5′-yl)acetic acid] | 2 nM |
| Cc1cc(-c2c(N)nc(C)c([C@H](OC(C)(C)C)C(=O)O)c2N2CCC(C)(C)CC2)cc(C)c1OCCc1ccc(F)cc1 [Example 61, (S)-2-(6-Amino-4-(4,4-dimethylpiperidin-1-yl)-5-(4-(4-fluorophenethoxy)-3,5-dimethylphenyl)-2-methylpyridin-3-yl)-2-(tert-butoxy)acetic acid] | 11 nM |
| COc1c(F)cc(-c2c(CN3CCC4(CCC4)CC3)nc(Cl)c([C@H](OC(C)(C)C)C(=O)O)c2N2CCC(C)(C)CC2)cc1F [Example 204] | 1 nM |
| Cc1nc(N(C)CCCN(C)C)c(-c2ccc(OCCc3ccc(F)cc3)cc2)c(N2CCC(C)(C)CC2)c1[C@H](OC(C)(C)C)C(=O)O [Example 98, (S)-2-(tert-Butoxy)-2-(6-((3-(dimethylamino)propyl)(methyl)amino)-4-(4,4-dimethylpiperidin-1-yl)-5-(4-(4-fluorophenethoxy)phenyl)-2-methylpyridin-3-yl)acetic acid] | 2 nM |
| Cc1ncc(-c2cnc(O[C@@H](C)c3ccccc3)c(F)c2)c(N2CCC(C)(C)CC2)c1[C@H](OC(C)(C)C)C(=O)O [Example 400, (2S)-2-(tert-butoxy)-2-[4-(4,4-dimethylpiperidin-1-yl)-5′-fluoro-6-methyl-6′-[(1S)-1-phenylethoxy]-[3,3′-bipyridine]-5-yl]acetic acid] | 6 nM |
| Cc1nc(N)c([C@H](OC(C)(C)C)C(=O)O)c(N2CCC(C)(C)CC2)c1-c1ccc(OCCc2ccc(F)cc2)cc1 [Example 2, (S)-2-(2-Amino-4-(4,4-dimethylpiperidin-1-yl)-5-(4-(4-fluorophenethoxy)phenyl)-6-methylpyridin-3-yl)-2-(tert-butoxy)acetic acid] | 5 nM |
| Cc1ncc(-c2cnc(OCCc3c(F)cc(F)cc3F)c(F)c2)c(N2CCC(C)(C)CC2)c1[C@H](OC(C)(C)C)C(=O)O [Example 404, (2S)-2-(tert-butoxy)-2-[4-(4,4-dimethylpiperidin-1-yl)-5′-fluoro-6-methyl-6′-[2-(2,4,6-trifluorophenyl)ethoxy]-[3,3′-bipyridine]-5-yl]acetic acid] | 3 nM |
